Values joined by “and” are separate entries in the source; they are usually repeats but may differ in a detail not shown here. Equal entries are not always repeated. Each block holds one molecule with its values, some of them ahead of it.
Assay: solvent given as SMILES
[1] = in O=P(c1ccccc1)(c1ccccc1)c1ccccc1Oc1ccccc1P(=O)(c1ccccc1)c1ccccc1

SMILES: Cc1ccc2c(c1)c1cc(C)ccc1n2-c1cccc(-n2c3ccc(C)cc3c3cc(C)ccc32)c1C#N
- emission maximum (in Cc1ccccc1): 417 nm
- emission maximum [1]: 432 nm

SMILES: CCCCCCC(CCCCCC)N1C(=O)c2cccc3c(-c4ccc(-c5ccc(OC)cc5)cc4)ccc(c23)C1=O
- emission maximum (in CCCCCC): 426.8 nm
- emission maximum (in CCCCCCCCCCCCCC): 436.7 nm
- emission maximum (in CCCCCCCCCCCO): 518.2 nm
- emission maximum (in CCCCO): 556.6 nm
- emission maximum (in CN(C)C=O): 583.4 nm
- emission maximum (in Cc1ccccc1): 454.6 nm
- emission maximum (in ClC(Cl)Cl): 492.2 nm

SMILES: CCCC1=Cc2nc1ccc1[nH]c(cc1CCC)c1nc(c(OCc3ccc(C(=O)O)cc3)cc3[nH]c2cc3CCC)C(CCC)=C1
- emission maximum (in Cc1ccccc1): 685 nm

SMILES: O=c1c2cc(-n3c4ccccc4c4ccccc43)ccc2sc2ccc(-n3c4ccccc4c4ccccc43)cc12
- emission maximum (in C1CCOC1): 460 nm
- emission maximum (in CCCCCC): 438 nm
- emission maximum (in Cc1ccccc1): 455.5 nm
- emission maximum (in ClC(Cl)Cl): 493.5 nm
- emission maximum (in ClCCl): 495 nm

SMILES: C[n+]1ccc(/C=C/c2ccc(N(c3ccccc3)c3ccc(/C=C/c4cc[n+](C)cc4)cc3)cc2)cc1
- emission maximum (in ClCCl): 502 nm
- emission maximum (in O): 656 nm
- emission maximum (in OCC(O)CO): 649 nm

SMILES: OCC1O[C@@H](Cc2cc(O)cc(/C=C/c3ccc(O)c(O)c3)c2)[C@H](O)[C@@H](O)[C@@H]1O (some centres not stated)
- emission maximum (in C1CCOC1): 375 nm
- emission maximum (in C1COCCO1): 370 nm
- emission maximum (in CC#N): 387 nm
- emission maximum (in CC(C)=O): 376 nm
- emission maximum (in CCCCO): 385 nm
- emission maximum (in CCCO): 386 nm
- emission maximum (in CCO): 390 nm
- emission maximum (in CCOC(C)=O): 372 nm
- emission maximum (in CCOCC): 372 nm
- emission maximum (in CN(C)C=O): 378 nm
- emission maximum (in CO): 394 nm
- emission maximum (in CS(C)=O): 381 nm
- emission maximum (in Cc1ccccc1): 371 nm
- emission maximum (in ClC(Cl)Cl): 373 nm
- emission maximum (in O): 403 nm

SMILES: CC(C)[Si](C#Cc1c2cc3ccccc3cc2c(C#C[Si](C(C)C)(C(C)C)C(C)C)c2nc3c(ccc4ccccc43)nc12)(C(C)C)C(C)C
- emission maximum (in CCCCCC): 661 nm

SMILES: Cc1ccc2c(c1)C(c1ccccc1)(c1ccccc1)c1cc(C)ccc1N2c1ccc2c(c1)Sc1ccccc1B2c1c(C(C)C)cc(C(C)C)cc1C(C)C
- emission maximum (in Cc1ccccc1): 493 nm
- emission maximum (in O=P(c1ccccc1)(c1ccccc1)c1ccc2oc3ccc(P(=O)(c4ccccc4)c4ccccc4)cc3c2c1): 497 nm

SMILES: N#C/C(=C/Nc1ccc(C#N)cc1)c1nc(-c2ccccc2)cs1
- emission maximum (in CCO): 434 nm
- emission maximum (in CN(C)C=O): 436 nm
- emission maximum (in Cc1ccccc1): 438 nm
- emission maximum (in ClCCl): 437 nm

SMILES: N#Cc1cc2ccc([O-])cc2oc1=O
- emission maximum (in O): 450 nm

SMILES: c1ccc(N(c2ccccc2)c2ccc(-c3ncc(-c4ccc(-c5cnc(-c6ccc(N(c7ccccc7)c7ccccc7)cc6)s5)s4)s3)cc2)cc1
- emission maximum (in CO): 503 nm

SMILES: Cc1ccc(-n2c(-c3ccc(N(c4ccc(-c5ccc(N(c6ccc(-c7nc8c9ccccc9c9ccccc9c8n7-c7ccc(C)cc7)cc6)c6ccc(-c7nc8c9ccccc9c9ccccc9c8n7-c7ccc(C)cc7)cc6)cc5)cc4)c4ccc(-c5nc6c7ccccc7c7ccccc7c6n5-c5ccc(C)cc5)cc4)cc3)nc3c4ccccc4c4ccccc4c32)cc1
- emission maximum (in ClCCl): 435 nm

SMILES: CCCCCCCCOc1ccc2c3cccc4c(OCCCCCCCC)ccc(c5cccc1c52)c43
- emission maximum (in C1CCOC1): 468.03 nm
- emission maximum (in Cc1ccccc1): 467.99 nm
- emission maximum (in ClC(Cl)(Cl)Cl): 471.01 nm
- emission maximum (in ClC(Cl)Cl): 471.01 nm
- emission maximum (in ClCCl): 469.99 nm
- emission maximum (in c1ccncc1): 474.01 nm

SMILES: O=C(O)CCCOc1cccc(-c2c3nc(cc4ccc([nH]4)c(-c4cccc(OCCCC(=O)O)c4)c4nc(cc5ccc2[nH]5)C=C4)C=C3)c1
- emission maximum (in CS(C)=O): 632 nm

SMILES: O=P(c1ccccc1)(c1ccccc1)n1c2ccccc2c2cc(-n3c4ccccc4c4cc(-n5c6ccccc6c6ccccc65)ccc43)ccc21
- emission maximum (in C1CCOC1): 373 nm
- emission maximum (in CC(C)=O): 374 nm
- emission maximum (in Cc1ccccc1): 373 nm
- emission maximum (in ClCCl): 381 nm

SMILES: COc1ccc2c(c1)c(C#N)cc1c(OC)c(OC)c3cc(C#N)c4cc(OC)ccc4c3c12
- emission maximum (in ClC(Cl)Cl): 496 nm

SMILES: COc1cc(OC)c2c(c1)c1c(c3ccc(C(C)(C)C)cc32)=[N+]2C(=Nc3c(-c4cc(OC)c(OC)c(OC)c4)c4c5cc(OC)cc(OC)c5c5cc(C(C)(C)C)ccc5c4n3[B-]2(F)F)C=1c1cc(OC)c(OC)c(OC)c1
- emission maximum (in Cc1ccccc1): 809 nm

SMILES: OC1(c2ccc(-c3cccs3)s2)CCC(c2ccccc2)CC1 (configuration not stated)
- emission maximum (in C1CCOC1): 471 nm
- emission maximum (in CC#N): 468 nm
- emission maximum (in CCCCCC): 464 nm
- emission maximum (in CCO): 460 nm
- emission maximum (in OCCOCCO): 384 nm
- emission maximum (in c1ccncc1): 385 nm

SMILES: CN(C)c1ccc(-c2ccc(-c3cc(N4CCCCC4)c(C#N)c4c3-c3ccccc3CC4)s2)cc1
- emission maximum (in C1CCCCC1): 491 nm
- emission maximum (in C1CCOC1): 537 nm
- emission maximum (in CN(C)C=O): 590 nm
- emission maximum (in CS(C)=O): 570 nm
- emission maximum (in Cc1ccccc1): 515 nm
- emission maximum (in ClC(Cl)Cl): 540 nm

SMILES: CCCCCCCCCCCCOc1ccc(C#CC(C#Cc2ccc(OCCCCCCCCCCCC)cc2)=Cc2cc(C=C(C#Cc3ccc(OCCCCCCCCCCCC)cc3)C#Cc3ccc(OCCCCCCCCCCCC)cc3)cc(C=C(C#Cc3ccc(OCCCCCCCCCCCC)cc3)C#Cc3ccc(OCCCCCCCCCCCC)cc3)c2)cc1
- emission maximum (in CCOC(C)=O): 428 nm

SMILES: CCC1=C(C)C2=C(C)c3cc(I)c(I)n3[B-](F)(F)[N+]2=C1C
- emission maximum (in C1CCCCC1): 546 nm
- emission maximum (in CC(C)=O): 544.5 nm
- emission maximum (in CCO): 548 nm
- emission maximum (in CCOC(C)=O): 544.5 nm
- emission maximum (in CO): 546 nm
- emission maximum (in OCC(F)(F)F): 542.5 nm

SMILES: CCN(CC)c1ccc(/N=N/c2nc3ccc([N+](=O)[O-])cc3s2)cc1
- emission maximum (in CC#N): 607 nm
- emission maximum (in ClCCl): 603 nm

SMILES: CC(C)C[Si](C#Cc1c2c(=O)c3ccccc3c2c(C#C[Si](CC(C)C)(CC(C)C)CC(C)C)c2c(=O)c3ccccc3c12)(CC(C)C)CC(C)C
- emission maximum (in ClC(Cl)Cl): 567 nm

SMILES: COc1ccc(/C=C/C2=CC(/C=C/c3ccc(OC)cc3)=[O+][B-](F)(F)O2)cc1
- emission maximum (in CC#N): 549 nm
- emission maximum (in CC(C)=O): 534 nm
- emission maximum (in CCOC(C)=O): 515 nm
- emission maximum (in CCOCC): 497 nm
- emission maximum (in ClC(Cl)(Cl)Cl): 492 nm
- emission maximum (in ClCCl): 538 nm

SMILES: CCCCN1C(=O)c2cccc3c(OC)ccc(c23)C1=O
- emission maximum (in Cc1ccccc1): 422 nm

SMILES: CN(C)c1cc2oc3cc(N(C)C)c(F)cc3c(=O)c2cc1F
- emission maximum (in CCO): 446 nm

SMILES: c1ccc(-c2nc(-c3ccccc3)nc(-c3ccc(-n4c5ccc(-n6c7ccccc7c7ccccc76)cc5c5cc(-n6c7ccccc7c7ccccc76)ccc54)cc3)n2)cc1
- emission maximum (in Cc1ccccc1): 458 nm
- emission maximum [1]: 475 nm and 450.31 nm

SMILES: CCC1=C(C)C2=C(C)c3c(I)c(I)cn3[B-](F)(F)[N+]2=C1C
- emission maximum (in C1CCCCC1): 538.5 nm
- emission maximum (in CC(C)=O): 533 nm
- emission maximum (in CCO): 534 nm
- emission maximum (in CCOC(C)=O): 533 nm
- emission maximum (in CO): 533.5 nm
- emission maximum (in OCC(F)(F)F): 530.5 nm

The remaining lines, values ahead:

- emission maximum (in CC1CCCCC1): 356.11 nm
- emission maximum (in CC#N): 367.92 nm
- emission maximum (in CO): 379.88 nm
- emission maximum (in O): 402.82 nm
SMILES: COC(=O)C([NH3+])Cc1ccc2oc(-c3ccncc3)nc2c1 (configuration not stated)

- emission maximum (in CCO): 435 nm
SMILES: CCOC(=O)/C=C/c1cc2ccc(-c3cn(Cc4ccccc4)nn3)cc2oc1=O

- emission maximum (in CO): 607 nm
- emission maximum (in ClC(Cl)Cl): 638 nm
SMILES: Cc1nc2c(ccc3c2sc(/C=C/c2ccc(-n4c5ccccc5c5ccccc54)cc2)[n+]3C)s1

- emission maximum (in C1CCCCC1): 433 nm
- emission maximum (in C1CCOC1): 535 nm
- emission maximum (in CC#N): 610 nm
- emission maximum (in CS(C)=O): 616 nm
- emission maximum (in ClCCl): 565 nm
SMILES: C(#Cc1ncnc2ccccc12)c1ccc(N(c2ccccc2)c2ccccc2)cc1

- emission maximum (in CO): 390 nm
SMILES: Oc1cccc(-c2nc(-c3ccccc3)c(-c3ccccc3)[nH]2)c1

- emission maximum (in ClC(Cl)Cl): 430 nm
SMILES: Cc1ccc2nc3c4c(c5ccccc5c3nc2c1)OC(=O)CC4c1ccc(C(F)(F)F)cc1 (configuration not stated)

- emission maximum (in C1CCOC1): 416 nm
SMILES: C(=C\c1cc2ccccc2c2ccccc12)/c1cc2ccccc2c2ccccc12

- emission maximum (in ClCCl): 521 nm
SMILES: Cc1ccc2nc3cc4ccccc4cc3c(-c3ccccc3)c2c1

- emission maximum (in C1CCCCC1): 380 nm
- emission maximum (in CO): 385 nm
SMILES: Cc1ccc(/C=C(\c2ccccc2)c2nc3ccccc3o2)cc1

- emission maximum (in CCOC(C)=O): 404 nm
SMILES: OCc1cc2c(cc3ccc4cccc5ccc2c3c45)[nH]1

- emission maximum (in CCO): 465 nm
SMILES: O=c1c2cc(F)c(O)cc2sc2cc(O)c(F)cc12

- emission maximum (in C1CCCCC1): 387 nm
SMILES: CB1C=Cc2ccc3ccccc3c2N1c1ccccc1

- emission maximum (in ClC(Cl)Cl): 446 nm
SMILES: COc1cc(OC)c2cc(-c3ccc(-c4cc5c(OC)cc(OC)cc5oc4=O)cc3)c(=O)oc2c1

- emission maximum (in ClCCl): 475 nm
SMILES: C(=C\c1ccc(-c2cccc3ccccc23)s1)/c1ccc(-c2cccc3ccccc23)s1

- emission maximum (in CC#N): 480 nm
- emission maximum (in CO): 496 nm
- emission maximum (in ClCCl): 473 nm
SMILES: Cc1cccc(-c2[nH]c(=O)n3c2-c2ccccc2C3=O)c1O

- emission maximum (in C1CCOC1): 460 nm
SMILES: N#Cc1c(N2CCCCC2)cc(-c2cccc3ccccc23)c2c1C(=O)c1ccccc1-2

- emission maximum (in C1CCOC1): 446 nm
SMILES: N#Cc1c(N2CCCC2)cc(-c2ccccc2)c2c1-c1ccccc1C2

- emission maximum (in CC1CCCO1): 552 nm
SMILES: O=c1cc2c(-c3c(O)c4cccc5ccc6oc(=O)cc3c6c54)c(O)c3cccc4ccc(o1)c2c43

- emission maximum (in ClCCl): 596 nm
SMILES: O=C1c2ccccc2C2=Nc3cccc4cccc(c34)N12

- emission maximum (in C1CCOC1): 474 nm
SMILES: CCOc1cc(C=C2c3ccccc3-c3ccccc32)c(OCC)cc1C=C1c2ccccc2C=Cc2ccccc21

- emission maximum (in CC#N): 584 nm
- emission maximum (in CCCCCC): 597 nm
- emission maximum (in CCOC(C)=O): 588 nm
- emission maximum (in CO): 582 nm
- emission maximum (in ClCCl): 586 nm
SMILES: CCCSC1=[N+]2C(=C(c3ccccc3)c3ccc(SCCC)n3[B-]2(F)F)C=C1SC#N

- emission maximum (in ClCCl): 435 nm
SMILES: COc1ccc(-c2cnc(/C=C/c3ccc(OC)c(OC)c3)o2)cc1

- emission maximum (in ClC(Cl)Cl): 409 nm
SMILES: CC(C)(C)c1ccc2oc3nc4oc5ccc(-n6c7ccccc7c(=O)c7ccccc76)cc5c4cc3c2c1

Source: the Deep4Chem optical property database
